Assay [1] deals with CDK4. The experiment in a line: Competition and pulldown of Compound 300/Compound 148 in CDK4-overexpressing MCF-7 lysate. Format: binding, human. To be noted: varying Compound 148 prior to 500 μM Compound 300, CDK4 overexpression. As for the experimental part: MCF-7 cells were grown to 40% confluency in 3 mL DMEM media (Gibco) containing 10% (v/v) FBS in a 6-well chamber at 37° C., 5% CO2. Transfection was then performed as per Lipofectamine 2000 protocol (Invitrogen). Briefly, 0 or 2.5 μg of pcDNA3.1(+)-FLAG-TEV-CDK4 expression construct was introduced at 0:0, 2:1 and 3:1 transfection reagent:DNA. The lipid-DNA complex was incubated for 30 mins at 23° C. in Opti-MEM media (Gibco). Then, 250 μL complex was added to 2.75 mL DMEM containing no FBS. 3 mL DMEM+DNA was added to each well, while control wells received DMEM only. Cells were incubated for 6H at 37° C., 5% CO2. The media was then aspirated, and cells were given 3 mL DMEM+10% FBS and left to incubate for an additional 30H at 37° C., 5% CO2. Cells were washed 3× in 500 μL ice-cold PBS then harvested by scraping in 200 μL ice-cold PBS+1% Triton X-100 containing EDTA-free protease inhibitors (Roche). Cells were lysed at 4° C. for 30 mins while rocking. Lysate was clarified by centrifugation at 10,000×g at 4° C. for 15 mins. The supernatant was then transferred to a fresh prechilled 1.5 mL microcentrifuge tube. Protein concentration was normalized to 2.0 mg/mL via BCA assay (Pierce; cat no. 23225). […] CDK4 expression was quantified by densitometry (ImageJ) and normalized to the actin loading control. […]

The subject of assay [2] is CDK4. The assay is described as follows: 2D gel electrophoresis western blot of CDK4 T172 phosphorylation in MCF-7. Format: cell-based, human. Particulars: MCF-7 cells, 2D SDS-PAGE, spot 3 normalized to spot 1. As for the experimental part:
Serum-synchronized MCF-7 cells were treated with compound according to method outlined. Cells were monitored by eye for cell death and harvested once high-dose cells were round but not detached, about 2 hours. Media was removed and cells washed with HBSS. Trypsin was added to detach cells. Cells were transferred to a falcon tube containing 7 mL of complete DMEM and centrifuged at 1200 rpm for 2 min. Supernatant discarded and pellet gently resuspended in 1 mL PBS and transferred to an Eppendorf tube. Sample was spun once more, after which the pellet was quickly rinsed with ice cold MQ and spun a final time. Pellet was aspirated, flash frozen with LN2, and stored at −80° C.
SCell pellets were solubilized in cold 30 mM Tris buffer pH 8.5 containing 7 M urea, 2 M thiourea and 4% CHAPS with continuous vortexing until unfrozen and then kept agitated for 20 min. After centrifugation at 15,700 g for 10 min at 4° C., proteins were quantified. An equal volume of 2-D-sample buffer (7 M urea, 2 M thiourea, 2% CHAPS, 0.4% 3-10 Pharmalytes, and 0.4% DTT) was added to samples normalized to 150 μg proteins. […] The proteins were detected using Western Lightning Plus ECL (Perkin Elmer) and viewed in Fusion FX gel documentation system using the Solo7S camera (Vilber Lourmat, France).
(A western blot detects proteins with antibodies after separation by electrophoresis.)

Consider `O=C(N1CC2COCC2C1)N1OC1c1ccccc1` (centres unmarked) [Compound 148], for which, in assay [1], the “CDK4 signal in eluted proteins after pulldown (competition with Compound 300)” value is given as “dose-dependent decrease in signal in eluted proteins”. In addition, in assay [2], the “T172 phosphorylation status on CDK4” value was “diminish T172 phosphorylation status on CDK4 in MCF-7 cells in a dose-dependent manner”.
